“Also recorded” adds a separate entry of the source.
What was measured:
[1] = Color stability in liquid detergent, visual inspection; format: physicochemical; details: 0.2% by weight in unperfumed liquid detergent base, stirred 24 h at room temperature; compared to unperfumed base sample (C)
Text: The above prepared samples were visually inspected in comparison to an unperfumed base sample (sample C).

[2] = Odor description on paper blotter; details: 1% solution in EtOH on paper blotter, 24 h
[3] = Malodour reduction on washed fabric, trained sensory panel; details: 4 day dry cloth washed with unit dose containing 2% of a 10% solution in trietylcitrate, + Male Sweat Malodour, 0-100 line scale; for Perceived Fragrance Intensity: control set at 0; for Perceived Malodour Intensity: malodour control set at 40
Description: Fabrics (18 cm×14 cm cotton jersey) were stripped before use. They were then washed in European washing machines (40° C.—1,000 spin/min) with one unit dose (65 g) used per wash load. The unit dose contained 2% of a 10% solution of the compound of formula 1 in trietylcitrate. • a) Compound of example 33 • b) Compound of example 34 • c) Compound of example 1
The total wash load was 1.6 kg made up of test cloths and hand towels (100% cotton) as ballast. The cloth was line dried and left overnight in a perfume free room at 25° C., left to hang for 3 days and then wrapped in foil the day prior to the test (day 3). 30 minutes before the assessment, 50 μL of the pure Male Sweat malodour was placed on top of a cotton pad and introduced into a 500 ml powder jar. One cotton jersey square was then placed over the top of the powder jar and secured with a rubber band. Every sample tested was coded with a random code number.
The malodour and fragrance perceived intensities were assessed by the trained sensory panel using a 0-100 line scale. All malodour and fragrance perceived intensities were scaled against the malodour control sample. The malodour perceived intensity was set at 40 for Male Sweat malodour and the fragrance perceived intensity was set at 0.
The order of samples assessed by the panelists was pre-determined using a balanced randomisation. The samples were assessed in a sequential monadic way. The products were assessed twice by 14 panelists, thus giving 28 assessments per sample.
Before analysis, the data was checked for outliers and extreme violations to normality.
Reliability of the data was checked and data of panelists with poor discrimination, consensus or repeatability may have been removed from the analysis. The data was analysed using analysis of variance (ANOVA). A 5% significance level (95% confidence level) was used. Separate ANOVAs were carried out for malodour and fragrance intensity. The ANOVA have product, panelist, and replicate as factors. Pairwise comparisons of the products were done using the Benjamini-Hochberg correction for multiple testing. The estimated product means are reported.

[4] = Washtest and sensory evaluation of fabric washed with liquid detergent; details: for odor intensity, 1 day / odor intensity, 4 days / odour intensity, 1 day / odour intensity, 4 days: scale 0 to 5; for odor intensity, wet / odour intensity, wet: wet fabric, scale 0 (odorless) to 5 (extremely strong); for odour intensity, wet: Table 2 (position of double bond); for odour intensity, 1 day / odour intensity, 4 days: Table 2
Description: The wet and line-dried fabric (1 and 4 days) was assessed by a panel of 4-6 experts with regard to odor intensity and quality. The odor intensity was recorded on an intensity scale of 0 (odorless) to 5 (extremely strong).
The odour intensity was recorded on an intensity scale of 0 (odorless) to 5 (extremely strong).
Liquid detergent samples were prepared and used in washtests and subsequent sensory evaluation of the washed and dried fabric as described in Example 45a and c. The odor intensity was recorded on an intensity scale of 0 (odorless) to 5 (extremely strong).

[5] = Biodegradability, manometric respirometry test (OECD 301F); parameters: key to result (biodegradable class; cell wraps to 'biodegradable'): A compound is readily biodegradable, if the pass level is reached within 10 days within the 28-day period of the test; If the pass level is obtained after 28-day period of the test, the compound can be classified as inherently biodegradable; details: for result (biodegradable class; cell wraps to 'biodegradable'): 28-day test, 10-day window; for Biodegradation in %: pass level 60% oxygen consumption of theory
Text: The results of the biodegradability assessment by the manometric respirometry test (OECD guideline for the testing of materials No. 301F, Paris 1992) are summarized in Table 5.
A compound can be classified biodegradable, if it reaches the pass level of 60% oxygen consumption of theory required for complete mineralization.
A compound is readily biodegradable, if the pass level is reached within 10 days within the 28-day period of the test. The 10-day window begins when the degree of biodegradation has reached 10%. If the pass level is obtained after 28-day period of the test, the compound can be classified as inherently biodegradable.

[6] = Application in shampoo base, odour on hair swatch; details: 0.2% by weight in clear hair shampoo base; dried hair swatch 1 and 3 days; panel of 7 experts
Description: A hair shampoo sample (20 g) was prepared by adding 0.2% by weight of 3-ethoxy-4-(hex-3-en-1-yloxy)benzaldehyde (compound of example 3) to unperfumed clear hair shampoo base and mixing on a bottle roller for 24 h at room temperature. An odour-neutral human hair swatch was wetted with warm tap water and lathered delicately with 2 mL of the above hair shampoo sample for 30 sec by hand wearing gloves. The lathered hair swatch was left in a plastic bowl for 2 min, then rinsed under running tap water for 20 sec. After removing excess water by squeezing the hair swatch between two fingers, it was left to dry in open air. The odour of the wet and dried hair swatch (1 and 3 days) was assessed by a panel of 7 experts.

[7] = liquid detergent washtest, dry fabric 1 day
[8] = liquid detergent washtest, dry fabric 4 days
[9] = Table 3, liquid detergent washtest
[10] = Table 3, liquid detergent washtest, dry fabric 1 day
[11] = Table 3, liquid detergent washtest, dry fabric 4 days

SMILES | Odor description [2] | result (biodegradable class; cell wraps to 'biodegradable') [5] | Biodegradation in % [5] | odor on dry fabric [4, 9] | odor intensity, 1 day [4, 10] | odor intensity, 4 days [4, 11] | odor intensity, wet [4, 9] | also measured
CCOc1cc(C=O)ccc1O [Ethylvanillin (A), 3-ethoxy-4-hydroxybenzaldehyde, reference compound] | – | – | – | – | – | – | – | Color of liquid detergent sample (visual inspection) [1]: strong brown-purple coloration
CC/C=C\CCOc1ccc(C=O)cc1OCC [Example 1, (Z)-3-ethoxy-4-(hex-3-en-1-yloxy)benzaldehyde] | powdery (vanillin) creamy | inherently | 61% | – | – | – | – | Color of liquid detergent sample (visual inspection) [1]: optically identical to the unperfumed base; Perceived Fragrance Intensity [3]: 18.3; Perceived Malodour Intensity [3]: 29.5; odor released from washed T-shirts ([4]; 0.2% in liquid detergent, 40° C. machine wash, after 1 and 4 days): strong vanilla, sweet, powdery and creamy fragrance; odor intensity, 1 day ([4]; Table 1, 0.2% in liquid detergent, 40° C. machine wash, line-dried fabric 1 day): 3; odor intensity, 4 days ([4]; Table 1, 0.2% in liquid detergent, 40° C. machine wash, line-dried fabric 4 days): 3.7; odor intensity, wet ([4]; Table 1, 0.2% in liquid detergent, 40° C. machine wash): 1.3; odour intensity, wet ([4]; liquid detergent washtest): 3.2; odour intensity, 1 day [4, 7]: 3.2; odour intensity, 4 days [4, 8]: 3.6
CCC=CCCOc1ccc(C=O)cc1OCC [Example 3, 3-ethoxy-4-(hex-3-en-1-yloxy)benzaldehyde] | powdery sweet (vanilla) | – | – | – | – | – | – | odour perceived on dry hair swatch [6]: Five out of seven experts perceived a vanilla note
CC/C=C\CCOc1ccc(CCC(C)=O)cc1 [Example 6, (Z)-4-(4-(hex-3-en-1-yloxy)phenyl)butan-2-one] | raspberry | readily | 82% | raspberry | 2.8 | 3.6 | 3.0 | –
CC/C=C\CCOc1ccc(C=O)cc1OC [Example 8, (Z)-4-(hex-3-en-1-yloxy)-3-methoxybenzaldehyde] | powdery (vanilla) slightly green | readily | 92% | – | – | – | – | –
CC/C=C\CCOc1cc(C)c(C(=O)OC)c(O)c1C [Example 9, methyl (Z)-4-(hex-3-en-1-yloxy)-2-hydroxy-3,6-dimethylbenzoate] | powdery mossy (Evernyl) | – | – | oakmoss | 1.7 | 3.3 | 1.0 | –
C=CCc1ccc(OCC/C=C\CC)c(OC)c1 [Example 10, (Z)-4-allyl-1-(hex-3-en-1-yloxy)-2-methoxybenzene] | slightly spicy | – | – | spicy, clove,; also recorded: gingerbread | 2.4 | 2.5 | 1.6 | –
C/C=C/c1ccc(OCC/C=C\CC)c(OC)c1 [Example 11, 1-(((Z)-hex-3-en-1-yl)oxy)-2-methoxy-4-((E)-prop-1-en-1-yl)benzene] | slightly spicy woody | – | – | spicy, vanilla | 1.9 | 3.0 | 2.0 | –
CC(=O)CCc1ccc(OCCC=C(C)C)cc1 [Example 18, 4-(4-((4-methylpent-3-en-1-yl)oxy)phenyl)butan-2-one] | sweet fruity (raspberry ketone) | readily | 91% | – | – | – | – | –
CCOc1cc(C=O)ccc1OC1CC=CC1 [Example 20, 4-(cyclopent-3-en-1-yloxy)-3-ethoxybenzaldehyde] | vanilla (powdery, spicy, creamy) | inherently | 74% | vanilla, powdery | 3.0 | 3.7 | – | –
CC=CCCOc1ccc(C=O)cc1OCC [Example 33, 3-ethoxy-4-(pent-3-en-1-yloxy)benzaldehyde] | mild, powdery, vanilla, peppery | inherently | 66% | – | – | – | – | Perceived Fragrance Intensity [3]: 22.3; Perceived Malodour Intensity [3]: 26.5; odour intensity, wet ([4]; liquid detergent washtest): 1.1; odour intensity, 1 day [4, 7]: 3.2; odour intensity, 4 days [4, 8]: 3.8
CCOc1cc(C=O)ccc1OCCC=C(C)C [Example 34, 3-ethoxy-4-((4-methylpent-3-en-1-yl)oxy)benzaldehyde] | powdery, vanilla, chocolate | inherently | 69% | vanilla | 3.3 | 3.4 | 1.5 | Perceived Fragrance Intensity [3]: 31.1; Perceived Malodour Intensity [3]: 20.6
C=CCCCOc1ccc(C=O)cc1OCC [Example 53, 3-ethoxy-4-(pent-4-en-1-yloxy)benzaldehyde, reference compound] | – | – | – | – | – | – | – | odour intensity, wet ([4]; liquid detergent washtest): 1.5; odour intensity, 1 day [4, 7]: 1.3; odour intensity, 4 days [4, 8]: 1.2
CCC/C=C/COc1ccc(C=O)cc1OCC [Example 54, (E)-3-ethoxy-4-(hex-2-en-1-yloxy)benzaldehyde, reference compound] | – | – | – | – | – | – | – | odour intensity, wet ([4]; liquid detergent washtest): 1.2; odour intensity, 1 day [4, 7]: 1.8; odour intensity, 4 days [4, 8]: 1.4

Reference: patent US20250243427A1, “PRECURSORS OF PHENOLIC FRAGRANT COMPOUNDS” (GIVAUDAN SA, priority 2021, published 2025)
